Reference: US20260355165A1, “2,3,4,9-TETRAHYDRO-1H-PYRIDO[3,4-B]INDOLE DERIVATIVES AS ESTROGEN RECEPTOR MODULATORS FOR THE TREATMENT OF CANCER” (Olema Pharmaceuticals, Inc., priority 2022, published 2026)

Biological target: T1, estrogen receptor (Homo sapiens, UniProt P03372)
T1 construct: endogenous in cells; host or cells: ECC-1 cells
T1 sequence (P03372 1-595): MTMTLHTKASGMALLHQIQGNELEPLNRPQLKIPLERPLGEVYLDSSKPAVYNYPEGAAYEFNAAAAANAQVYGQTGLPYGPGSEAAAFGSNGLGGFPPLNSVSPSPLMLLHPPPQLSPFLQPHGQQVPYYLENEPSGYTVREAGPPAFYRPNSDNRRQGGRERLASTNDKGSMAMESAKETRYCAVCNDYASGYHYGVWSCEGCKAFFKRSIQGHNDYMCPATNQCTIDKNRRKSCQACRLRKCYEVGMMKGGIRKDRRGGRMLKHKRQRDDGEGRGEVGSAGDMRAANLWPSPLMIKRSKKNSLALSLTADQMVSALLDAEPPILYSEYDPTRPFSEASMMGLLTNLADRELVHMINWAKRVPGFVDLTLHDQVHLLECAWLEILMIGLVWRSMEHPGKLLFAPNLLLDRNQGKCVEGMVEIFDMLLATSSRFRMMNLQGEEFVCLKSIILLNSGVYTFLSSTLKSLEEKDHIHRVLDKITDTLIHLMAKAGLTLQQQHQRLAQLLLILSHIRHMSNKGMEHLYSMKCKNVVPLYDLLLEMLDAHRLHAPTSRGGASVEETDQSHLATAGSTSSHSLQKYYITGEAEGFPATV
Experiment: AP assay (alkaline phosphatase activity in ECC-1 cells), agonist mode (absence of E2) and antagonist mode (presence of 500 pM E2)
Type: cell-based
Conditions: 3 days, AP activity normalized to 500 pM E2 alone, agonist and antagonist mode combined
Protocol: ECC-1 cells were trypsinized and resuspended in hormone-depleted media and plated at a density of 15 k cells per well into a 96-well plate for at least 4 hours. Cells were treated with test compounds in the absence of E2 (for agonist mode) or in the presence of 500 pM E2 (for antagonist mode) for 3 days and plates were subsequently frozen at −80 °C. Thawed plates were incubated with a chromogenic substrate of AP, p-nitrophenyl phosphate (Thermo Fisher Scientific), for 40 minutes at 42 °C, and absorbances were read at 405 nm. AP activity was normalized to the activity of 500 pM E2 alone.
The compound numbers correspond to the compound numbers of Table 1 and 2. Compounds having an activity designated as “+” provided estrogen receptor agonism having (i) at least 80% increase in the E2-normalized signal in the AP assay (agonist mode) and (ii) no more than 80% reduction in the E2-normalized signal in the AP assay (antagonist mode). Compounds having an activity designated as “++” provided estrogen receptor antagonism having (i) between 10% and 80% increase in the E2-normalized signal in the AP assay (agonist mode) and (ii) between 10% and 80% reduction in the E2-normalized signal in the AP assay (antagonist mode).

| SMILES | Activity (estrogen receptor modulation, e.g., agonism and antagonism) |
| --- | --- |
| C[C@@H]1Cc2c([nH]c3ccccc23)[C@@H](c2n[nH]c3cc(CN4CC(CF)C4)ccc23)N1CC(F)F [Compound I-36, (1S,3R)-2-(2,2-difluoroethyl)-1-(6-((3-(fluoromethyl)azetidin-1-yl)methyl)-1H-indazol-3-yl)-3-methyl-2,3,4,9-tetrahydro-1H-pyrido[3,4-b]indole] | ++ (estrogen receptor antagonism having (i) between 10% and 80% increase in the E2-normalized signal in the AP assay (agonist mode) and (ii) between 10% and 80% reduction in the E2-normalized signal in the AP assay (antagonist mode)) |
| C[C@@H]1Cc2c([nH]c3ccccc23)[C@@H](c2c[nH]c3cc(C(=O)O)ccc23)N1CC(C)(C)F [Compound I-3, 3-[(1R,3R)-2-(2-fluoro-2-methyl-propyl)-3-methyl-1,3,4,9-tetrahydropyrido[3,4-b]indol-1-yl]-1H-indole-6-carboxylic acid] | + (estrogen receptor agonism having (i) at least 80% increase in the E2-normalized signal in the AP assay (agonist mode) and (ii) no more than 80% reduction in the E2-normalized signal in the AP assay (antagonist mode)) |
| C[C@@H]1Cc2c([nH]c3ccccc23)[C@@H](c2cc3cc(CN4CC(CF)C4)[nH]c3s2)N1CC(C)(C)F [Compound I-63, 5-[[3-(fluoromethyl)azetidin-1-yl]methyl]-2-[(1S,3R)-2-(2-fluoro-2-methyl-propyl)-3-methyl-1,3,4,9-tetrahydropyrido[3,4-b]indol-1-yl]-6H-thieno[2,3-b]pyrrole] | ++ (estrogen receptor antagonism having (i) between 10% and 80% increase in the E2-normalized signal in the AP assay (agonist mode) and (ii) between 10% and 80% reduction in the E2-normalized signal in the AP assay (antagonist mode)) |
| CCCN(C)Cc1ccc2c([C@@H]3c4[nH]c5ccccc5c4C[C@@H](C)N3CC(C)(C)F)n[nH]c2c1 [Compound I-13, N-[[3-[(1S,3R)-2-(2-fluoro-2-methyl-propyl)-3-methyl-1,3,4,9-tetrahydropyrido[3,4-b]indol-1-yl]-1H-indazol-6-yl]methyl]-N-methyl-propan-1-amine] | + (estrogen receptor agonism having (i) at least 80% increase in the E2-normalized signal in the AP assay (agonist mode) and (ii) no more than 80% reduction in the E2-normalized signal in the AP assay (antagonist mode)) |
| C[C@@H]1Cc2c([nH]c3ccccc23)[C@@H](c2ccc3[nH]c(CN4CC(C)(C)C4)cc3c2)N1CC(C)(C)F [Compound I-92, (1R,3R)-1-[2-[(3,3-dimethylazetidin-1-yl)methyl]-1H-indol-5-yl]-2-(2-fluoro-2-methyl-propyl)-3-methyl-1,3,4,9-tetrahydropyrido[3,4-b]indole] | + (estrogen receptor agonism having (i) at least 80% increase in the E2-normalized signal in the AP assay (agonist mode) and (ii) no more than 80% reduction in the E2-normalized signal in the AP assay (antagonist mode)) |
| C[C@@H]1Cc2c([nH]c3ccccc23)[C@@H](c2ccc3sc(CN4CC(CF)C4)nc3c2)N1CC(C)(C)F [Compound I-103, 2-[[3-(fluoromethyl)azetidin-1-yl]methyl]-5-[(1R,3R)-2-(2-fluoro-2-methyl-propyl)-3-methyl-1,3,4,9-tetrahydropyrido[3,4-b]indol-1-yl]-1,3-benzothiazole] | + (estrogen receptor agonism having (i) at least 80% increase in the E2-normalized signal in the AP assay (agonist mode) and (ii) no more than 80% reduction in the E2-normalized signal in the AP assay (antagonist mode)) |
| CC1CN(Cc2ccc3c([C@@H]4c5[nH]c6ccccc6c5C[C@@H](C)N4CC(C)(C)F)c[nH]c3c2)C1 [Compound I-6, (1R,3R)-2-(2-fluoro-2-methyl-propyl)-3-methyl-1-[6-[(3-methylazetidin-1-yl)methyl]-1H-indol-3-yl]-1,3,4,9-tetrahydropyrido[3,4-b]indole] | ++ (estrogen receptor antagonism having (i) between 10% and 80% increase in the E2-normalized signal in the AP assay (agonist mode) and (ii) between 10% and 80% reduction in the E2-normalized signal in the AP assay (antagonist mode)) |
| C[C@@H]1Cc2c([nH]c3ccccc23)[C@@H](c2cc3[nH]c(CNCCCF)cc3s2)N1CC(C)(C)F [Compound I-67, 3-fluoro-N-[[2-[(1S,3R)-2-(2-fluoro-2-methyl-propyl)-3-methyl-1,3,4,9-tetrahydropyrido[3,4-b]indol-1-yl]-4H-thieno[3,2-b]pyrrol-5-yl]methyl]propan-1-amine] | + (estrogen receptor agonism having (i) at least 80% increase in the E2-normalized signal in the AP assay (agonist mode) and (ii) no more than 80% reduction in the E2-normalized signal in the AP assay (antagonist mode)) |
| C[C@@H]1Cc2c([nH]c3ccccc23)[C@@H](c2n[nH]c3cc(CN4CC5(CC(O)C5)C4)ccc23)N1CC(C)(C)F [Compound I-31, 2-[[3-[(1S,3R)-2-(2-fluoro-2-methyl-propyl)-3-methyl-1,3,4,9-tetrahydropyrido[3,4-b]indol-1-yl]-1H-indazol-6-yl]methyl]-2-azaspiro[3.3]heptan-6-ol] | + (estrogen receptor agonism having (i) at least 80% increase in the E2-normalized signal in the AP assay (agonist mode) and (ii) no more than 80% reduction in the E2-normalized signal in the AP assay (antagonist mode)) |
| C[C@@H]1Cc2c([nH]c3ccccc23)[C@@H](c2n[nH]c3cc(CN4CC5(CC(F)C5)C4)ccc23)N1CC(C)(C)F [Compound I-33, (1S,3R)-1-[6-[(6-fluoro-2-azaspiro[3.3]heptan-2-yl)methyl]-1H-indazol-3-yl]-2-(2-fluoro-2-methyl-propyl)-3-methyl-1,3,4,9-tetrahydropyrido[3,4-b]indole] | +++ (estrogen receptor antagonism (i) with pIC50 greater than 7.5 and at least a 10% reduction in the E2-normalized signal in the AP assay (antagonist mode); and (ii) no more than 10% increase in E2-normalized signal in the AP assay (agonist mode)) |
| C[C@@H]1Cc2c([nH]c3ccccc23)[C@@H](c2ccc3oc(CN4CC(CF)C4)nc3c2)N1CC(F)(F)CO [Compound I-80, 2,2-difluoro-3-[(1R,3R)-1-[2-[[3-(fluoromethyl)azetidin-1-yl]methyl]-1,3-benzoxazol-5-yl]-3-methyl-1,3,4,9-tetrahydropyrido[3,4-b]indol-2-yl]propan-1-ol] | +++ (estrogen receptor antagonism (i) with pIC50 greater than 7.5 and at least a 10% reduction in the E2-normalized signal in the AP assay (antagonist mode); and (ii) no more than 10% increase in E2-normalized signal in the AP assay (agonist mode)) |
| C[C@@H]1Cc2c([nH]c3ccccc23)[C@@H](c2c[nH]c3cc(CO)ccc23)N1CC(C)(C)F [Compound I-1, [3-[(1R,3R)-2-(2-fluoro-2-methyl-propyl)-3-methyl-1,3,4,9-tetrahydropyrido[3,4-b]indol-1-yl]-1H-indol-6-yl]methanol] | + (estrogen receptor agonism having (i) at least 80% increase in the E2-normalized signal in the AP assay (agonist mode) and (ii) no more than 80% reduction in the E2-normalized signal in the AP assay (antagonist mode)) |
| C[C@@H]1Cc2c([nH]c3ccccc23)[C@@H](c2n[nH]c3cc(CN4CCC45CC(F)(F)C5)ccc23)N1CC(C)(C)F [Compound I-34, (1S,3R)-1-[6-[(6,6-difluoro-1-azaspiro[3.3]heptan-1-yl)methyl]-1H-indazol-3-yl]-2-(2-fluoro-2-methyl-propyl)-3-methyl-1,3,4,9-tetrahydropyrido[3,4-b]indole] | + (estrogen receptor agonism having (i) at least 80% increase in the E2-normalized signal in the AP assay (agonist mode) and (ii) no more than 80% reduction in the E2-normalized signal in the AP assay (antagonist mode)) |
| C[C@@H]1Cc2c([nH]c3ccccc23)[C@@H](c2ccc3nc(CN4CC(CF)C4)cn3c2)N1CC(C)(C)F [Compound I-73, (1R,3R)-1-[2-[[3-(fluoromethyl)azetidin-1-yl]methyl]imidazo[1,2-a]pyridin-6-yl]-2-(2-fluoro-2-methyl-propyl)-3-methyl-1,3,4,9-tetrahydropyrido[3,4-b]indole] | + (estrogen receptor agonism having (i) at least 80% increase in the E2-normalized signal in the AP assay (agonist mode) and (ii) no more than 80% reduction in the E2-normalized signal in the AP assay (antagonist mode)) |
